The values below are quoted from earlier work in patent US20190202814A1, “PROCESSES FOR PREPARATION OF EMPAGLIFLOZIN” (CADILA HEALTHCARE LIMITED, priority 2015, published 2019).

For series [1] the following is noted: crystalline solid.

For `OC[C@H]1O[C@@H](c2ccc(Cl)c(Cc3ccc(O[C@H]4CCOC4)cc3)c2)[C@H](O)[C@@H](O)[C@@H]1O` [Empagliflozin, (1S)-1,5-anhydro-1-{4-chloro-3-(4-[(3S)-tetrahydrofuran-3-yloxy]benzyl}phenyl)-D-glucitol], under “acetonitrile”, the solubility in acetonitrile result is given as “very slightly soluble”. For the same molecule, the solubility in ethanol entry (ethanol) is given as “very slightly soluble”. Moreover, under “methanol”, the solubility in methanol result is reported as “sparingly soluble”. For the same molecule, the solubility in toluene result (toluene) is reported as “practically insoluble”. Besides, the solubility in water entry (water) is “very slightly soluble”. Besides, in series [1], the hygroscopicity entry is reported as “non-hygroscopic”.
